# Measured values reported in ChEMBL document CHEMBL1201862, “PubChem BioAssay data set” (2004).
#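 Growth conditions: 96-well plates. Treatment: test compound, 48 hours, 5 concentrations. Analysis: linear interpolation between bracketing concentrations; unreached endpoints set to highest concentration. GI50: concentration for 50% inhibition of growth.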 Calls of active or inactive are those of the source. No stated cut-off is given here; in the data, active = GI50 up to about 1.1 µM and inactive = higher.
# Legend:
# Test in all cases: DTP human tumour cell line panel, 48 h
# [1] = tested on: A549
# [2] = tested on: NCI-H226
# [3] = tested on: SK-MEL-2
# [4] = tested on: NCI-H23
# [5] = tested on: COLO 205
# [6] = tested on: CCRF-CEM
# [7] = tested on: SW-620
# [8] = tested on: ACHN
# [9] = tested on: LOX IMVI
# [10] = tested on: BT-549
# [11] = tested on: OVCAR-8
# [12] = tested on: SNB-19
# [13] = tested on: MDA-MB-435
# [14] = tested on: 786-0
# [15] = tested on: HCT-15
# [16] = tested on: Hs-578T
# [17] = tested on: MDA-N
# [18] = tested on: A498
# [19] = tested on: RXF 393
# [20] = tested on: HOP-62
# [21] = tested on: EKVX
# [22] = tested on: IGROV-1
# [23] = tested on: OVCAR-3
# [24] = tested on: KM12
# [25] = tested on: MDA-MB-231
# [26] = tested on: HCT-116
# [27] = tested on: NCI/ADR-RES
# [28] = tested on: UO-31
# [29] = tested on: NCI-H522
# [30] = tested on: U-251
# [31] = tested on: SF-539
# [32] = tested on: SK-MEL-5
# [33] = tested on: SR
# [34] = tested on: SN12C
# [35] = tested on: HT-29
# [36] = tested on: MOLT-4
# [37] = tested on: M14
# [38] = tested on: OVCAR-5
# [39] = tested on: MCF7
# [40] = tested on: SF-295
# [41] = tested on: Malme-3M
# [42] = tested on: K562
# [43] = tested on: SK-OV-3
# [44] = tested on: SK-MEL-28
# [45] = tested on: UACC-257
# [46] = tested on: NCI-H460
# [47] = tested on: CAKI-1
# [48] = tested on: DU-145
# [49] = tested on: PC-3
# [50] = tested on: SNB-75
# [51] = tested on: SF-268
# [52] = tested on: HOP-92
# [53] = tested on: T47D
# [54] = tested on: HCC 2998
# [55] = tested on: HL-60
# [56] = tested on: RPMI-8226
# [57] = tested on: UACC-62
# [58] = tested on: TK-10
# [59] = tested on: OVCAR-4
compound,measurement,setting,value
O=C(Nc1ccccc1C(=O)O)/C(=C/c1ccccc1)NC(=O)c1ccccc1,GI50,[1],> 100 µM (inactive)
same,GI50,[2],> 100 µM (inactive)
same,GI50,[3],> 100 µM (inactive)
same,GI50,[4],> 100 µM (inactive)
same,GI50,[5],> 100 µM (inactive)
same,GI50,[6],> 100 µM (inactive)
same,GI50,[7],> 100 µM (inactive)
same,GI50,[8],> 100 µM (inactive)
same,GI50,[9],> 100 µM (inactive)
same,GI50,[10],> 100 µM (inactive)
same,GI50,[11],> 100 µM (inactive)
same,GI50,[12],> 100 µM (inactive)
same,GI50,[13],> 100 µM (inactive)
same,GI50,[14],> 100 µM (inactive)
same,GI50,[15],> 100 µM
same,GI50,[16],> 100 µM (inactive)
same,GI50,[17],> 100 µM (inactive)
same,GI50,[18],> 100 µM (inactive)
same,GI50,[19],65.9 µM (inactive)
same,GI50,[20],> 100 µM (inactive)
same,GI50,[21],> 100 µM (inactive)
same,GI50,[22],> 100 µM (inactive)
same,GI50,[23],> 100 µM (inactive)
same,GI50,[24],> 100 µM (inactive)
same,GI50,[25],> 100 µM (inactive)
same,GI50,[26],> 100 µM (inactive)
same,GI50,[27],> 100 µM (inactive)
same,GI50,[28],> 100 µM (inactive)
same,GI50,[29],> 100 µM (inactive)
same,GI50,[30],> 100 µM (inactive)
same,GI50,[31],> 100 µM (inactive)
same,GI50,[32],> 100 µM (inactive)
same,GI50,[33],> 100 µM (inactive)
same,GI50,[34],> 100 µM (inactive)
same,GI50,[35],> 100 µM (inactive)
same,GI50,[36],> 100 µM (inactive)
same,GI50,[37],> 100 µM (inactive)
same,GI50,[38],> 100 µM (inactive)
same,GI50,[39],> 100 µM (inactive)
same,GI50,[40],> 100 µM (inactive)
same,GI50,[41],> 100 µM (inactive)
same,GI50,[42],> 100 µM (inactive)
same,GI50,[43],> 100 µM (inactive)
same,GI50,[44],> 100 µM (inactive)
same,GI50,[45],> 100 µM (inactive)
same,GI50,[46],> 100 µM (inactive)
same,GI50,[47],> 100 µM (inactive)
same,GI50,[48],> 100 µM (inactive)
same,GI50,[49],> 100 µM (inactive)
same,GI50,[50],> 100 µM (inactive)
same,GI50,[51],> 100 µM (inactive)
same,GI50,[52],> 100 µM (inactive)
same,GI50,[53],> 100 µM (inactive)
same,GI50,[54],> 100 µM (inactive)
same,GI50,[55],> 100 µM (inactive)
same,GI50,[56],> 100 µM (inactive)
same,GI50,[57],> 100 µM (inactive)
FC(F)(F)c1ccc2c(c1)nc(-c1ccccc1)n2CC1CCCN2CCCCC12 (stereo unspecified),GI50,[1],24.9 µM (inactive)
same,GI50,[2],20.8 µM (inactive)
same,GI50,[3],15.3 µM (inactive)
same,GI50,[5],13 µM (inactive)
same,GI50,[7],28.1 µM (inactive)
same,GI50,[8],19.9 µM (inactive)
same,GI50,[9],15.4 µM (inactive)
same,GI50,[10],16.7 µM (inactive)
same,GI50,[11],18.6 µM (inactive)
same,GI50,[12],34.8 µM (inactive)
same,GI50,[13],18.3 µM (inactive)
same,GI50,[58],19.6 µM (inactive)
same,GI50,[14],15.7 µM (inactive)
same,GI50,[15],21.9 µM
same,GI50,[16],16.8 µM (inactive)
same,GI50,[17],17.6 µM (inactive)
same,GI50,[18],22.2 µM (inactive)
same,GI50,[19],19 µM (inactive)
same,GI50,[20],27.5 µM (inactive)
same,GI50,[21],29.2 µM (inactive)
same,GI50,[22],18.3 µM (inactive)
same,GI50,[23],23.5 µM (inactive)
same,GI50,[24],19.2 µM (inactive)
same,GI50,[25],13.6 µM (inactive)
same,GI50,[26],16.4 µM (inactive)
same,GI50,[27],16.3 µM (inactive)
same,GI50,[28],0.27 µM (active)
same,GI50,[29],14.2 µM (inactive)
same,GI50,[30],20.3 µM (inactive)
same,GI50,[31],16.4 µM (inactive)
same,GI50,[32],14.9 µM (inactive)
same,GI50,[33],17.6 µM (inactive)
same,GI50,[34],18.6 µM (inactive)
same,GI50,[35],16.1 µM (inactive)
same,GI50,[36],25.9 µM (inactive)
same,GI50,[37],17.1 µM (inactive)
same,GI50,[39],17.1 µM (inactive)
same,GI50,[40],15.1 µM (inactive)
same,GI50,[41],13.7 µM (inactive)
same,GI50,[42],21.1 µM (inactive)
same,GI50,[43],16.9 µM (inactive)
same,GI50,[44],18.2 µM (inactive)
same,GI50,[45],15.9 µM (inactive)
same,GI50,[46],19.6 µM (inactive)
same,GI50,[47],17.3 µM (inactive)
same,GI50,[48],27 µM (inactive)
same,GI50,[49],15.3 µM (inactive)
same,GI50,[50],19.3 µM (inactive)
same,GI50,[51],15.6 µM (inactive)
same,GI50,[52],18.8 µM (inactive)
same,GI50,[59],34.8 µM (inactive)
same,GI50,[53],20 µM (inactive)
same,GI50,[54],16 µM (inactive)
same,GI50,[55],14.3 µM (inactive)
same,GI50,[56],32 µM (inactive)
same,GI50,[57],16.6 µM (inactive)
O=C(/C(=C/c1cccs1)c1ccccc1)c1ccccc1,GI50,[1],54.2 µM (inactive)
same,GI50,[2],> 100 µM (inactive)
same,GI50,[3],40.2 µM (inactive)
same,GI50,[4],76.6 µM (inactive)
same,GI50,[5],> 100 µM (inactive)
same,GI50,[6],> 100 µM (inactive)
same,GI50,[7],> 100 µM (inactive)
same,GI50,[8],39.4 µM (inactive)
same,GI50,[9],> 100 µM (inactive)
same,GI50,[10],> 100 µM (inactive)
same,GI50,[11],> 100 µM (inactive)
same,GI50,[12],30.5 µM (inactive)
same,GI50,[13],> 100 µM (inactive)
same,GI50,[58],> 100 µM (inactive)
same,GI50,[14],26.2 µM (inactive)
same,GI50,[15],> 100 µM
same,GI50,[16],> 100 µM (inactive)
same,GI50,[17],> 100 µM (inactive)
same,GI50,[18],> 100 µM (inactive)
same,GI50,[19],4.99 µM (inactive)
same,GI50,[20],7.21 µM (inactive)
same,GI50,[21],> 100 µM (inactive)
same,GI50,[22],> 100 µM (inactive)
same,GI50,[23],> 100 µM (inactive)
same,GI50,[24],> 100 µM (inactive)
same,GI50,[25],23.4 µM (inactive)
same,GI50,[26],> 100 µM (inactive)
same,GI50,[27],> 100 µM (inactive)
same,GI50,[28],> 100 µM (inactive)
same,GI50,[29],53.7 µM (inactive)
same,GI50,[30],77.1 µM (inactive)
same,GI50,[31],17.5 µM (inactive)
same,GI50,[32],> 100 µM (inactive)
same,GI50,[33],34.3 µM (inactive)
same,GI50,[34],82.2 µM (inactive)
same,GI50,[35],53.2 µM (inactive)
same,GI50,[36],82.4 µM (inactive)
same,GI50,[37],> 100 µM (inactive)
same,GI50,[38],> 100 µM (inactive)
same,GI50,[39],> 100 µM (inactive)
same,GI50,[40],> 100 µM (inactive)
same,GI50,[42],> 100 µM (inactive)
same,GI50,[43],> 100 µM (inactive)
same,GI50,[44],> 100 µM (inactive)
same,GI50,[45],> 100 µM (inactive)
same,GI50,[46],> 100 µM (inactive)
same,GI50,[47],> 100 µM (inactive)
same,GI50,[48],> 100 µM (inactive)
same,GI50,[49],25.6 µM (inactive)
same,GI50,[50],37.7 µM (inactive)
same,GI50,[51],> 100 µM (inactive)
same,GI50,[52],> 100 µM (inactive)
same,GI50,[59],35.2 µM (inactive)
same,GI50,[53],> 100 µM (inactive)
same,GI50,[54],> 100 µM (inactive)
same,GI50,[55],47.4 µM (inactive)
same,GI50,[56],> 100 µM (inactive)
same,GI50,[57],> 100 µM (inactive)
